Measurements from PMC3602187, “From Design to Screening: A New Antimicrobial Peptide Discovery Pipeline” (PLoS ONE, 2013).

Each substance was assayed on Listeria innocua 33090 (assay: colony overlay assay of peptide-secreting E. coli clones (library screening and re-test)). Conditions: library screening; selected colonies pooled by zone size; peptides identified by 454 sequencing, full-length sequences with minimum 20 reads.
Format: cell-based
Parameters: key: higher activity group (H); equal activity group (E); lower activity group (L)
Protocol: For the in vivo production of AMPs, we have employed an E. coli expression system that relies on periplasmic-expression of recombinant peptides in a host cell that lacks the lpo membrane protein, thus releasing the peptides present in the periplasmic space outside the cells. When the producer cells are grown into colonies on a solid substrate, it leads to accumulation of the recombinant peptides around the colony and allows for easy library screening. The screening assay used in this study was a modified version of the standard agar diffusion method as previously described. Library-transformed E. coli colonies are overlaid with a tester strain and incubated overnight to allow for peptide expression and tester strain growth. Next day, the plates are inspected for the formation of clear growth inhibition zones around E. coli colonies, which is an indication of active AMP production by the host colony.
For the construction of Pln-423 mutant library in E. coli, the expression system that consists of a periplasmic-leaky E. coli strain JE5505 and the expression plasmid pFLAG-CTS was employed for direct screening of peptide activities. It should be noted here that this plasmid contains ompA secretion signal sequence and cleavage of this sequence results in a serine residue at the N-terminal of all mature peptides. A total of 1.0×10^5 colonies, approximately 8-fold coverage of the library, were screened against Listeria innocua 33090 in five separate screening experiments. L. innocua was previously deemed as a suitable indicator for pathogenic L. monocytogenes displaying similar bacteriocin sensitivity, therefore it was used as a surrogate strain throughout this study. The selection process involved two criteria; 1) the size of the each inhibition zone was compared to that of wild-type Pln-423 as a correlation to anti-listerial activity level, 2) when several colonies formed inhibition zones that are very similar in size and character, only a few from each group were selected. The colonies were pooled into three groups based on their activities, giving 43 clones in a higher activity group (H), 81 clones in an equal activity group (E), and 241 clones in a lower activity group (L). Their plasmids were extracted from each activity group and analyzed by both Sanger and 454 high-throughput sequencing to identify peptide sequences.
These clones were also re-tested by colony overlay assay to compare their activities to wild-type Pln-423 based on the size of the inhibition zone around each clone (Figure 2-A). Based on this assay, all ten plantaricin mutants formed larger inhibition zones (10.3±0.5 to 11.4±0.3 mm zone diameter) compared to wild-type Pln-423 (6.2±0.2 mm) against L. innocua 33090. Out of those ten, three clones have a single mutation and […] clones have two mutations and the remaining single clone has three mutations. […] Positions like Ser23, Ser27, His28, and Lys36 were commonly mutated with similar amino acids indicating their potential role on higher peptide activity.
The screening method used in this study was a modified version of the standard colony overlay method as previously described. All the chemicals and growth media supplements were obtained from either Sigma-Aldrich or Fisher Scientific unless otherwise stated. Transformed E. coli JE5505 cells were diluted to 3000–5000 cfu (determined empirically prior to screening by plating serial dilutions of E. coli suspensions of a known absorbance and counting the colonies after incubation) in 25 ml LB soft agar (0.8%, 45°C) per screening plate and poured into 150 mm petri dishes. Once the media was solidified, they were overlaid with 10 ml LB soft agar (45°C) and incubated at 37°C for 24 h for host-colony formation. Next day, these plates were re-overlaid with 10 ml TSB soft agar containing 1 mM IPTG and the indicator strain Listeria innocua ATCC 33090 (diluted to OD600 = 0.03). […]

Substance	activity group by size of inhibition zone compared to wild-type Pln-423
KNYGNGVTCGKHSCSVNWGQAFSCSVEHLANFGHAKC* [GROUP E-UM-10]	E
KYYGNGVTCDKHSCSVNWGQAFKCSVDHLANFGHGKC* [GROUP H-UM-4]	H
KYYGNGVTCGKHSCRVNWAQAFSCTVSHLANFGHGKC* [GROUP L-UM-2]	L
KYYGNGVTCGKHSCSVNAGQAFSCAVSHLANFGHGKC* [Pep-2_497]	E
KYYGNGVTCGKHSCSVNWAQAFSCNVSHLANFGHGKC* [Pep-2_4793]	L
KYYGNGVTCGKHSCSVNWAQAFSCSVSHLANFGHGHC* [Pep-2_1213]	L and E
KYYGNGVTCGKHSCSVNWAQAFSCSVSHLANFGHGLC* [Pep-2_12029]	L
KYYGNGVTCGKHSCSVNWAQAFSCSVVHLANFGHGKC* [Pep-2_6197]	L
KYYGNGVTCGKHSCSVNWAQALSCSVSHLANFGHGKC* [Pep-2_1132]	L
KYYGNGVTCGKHSCSVNWAQGFSCSVSHLANFGHGKC* [Pep-2_1127]	L
KYYGNGVTCGKHSCSVNWGAAFSCAVSHLANFGHGKC* [Pep-2_5015]	L
KYYGNGVTCGKHSCSVNWGDAFSCSVAHLANFGHGKC* [Pep-2_1487]	L
KYYGNGVTCGKHSCSVNWGEAFSCAVSHLANFGHGKC* [Pep-2_5012]	E
KYYGNGVTCGKHSCSVNWGEAFSCSVHHLANFGHGKC* [Pep-2_5876]	E
KYYGNGVTCGKHSCSVNWGEAFSCSVSHLANYGHGKC* [GROUP E-UM-2]	E
KYYGNGVTCGKHSCSVNWGEAFVCSVSHLANFGHGKC* [Pep-2_3608]	E
KYYGNGVTCGKHSCSVNWGGAFSCSVSHLANFGHGWC* [Pep-2_12251]	L
KYYGNGVTCGKHSCSVNWGGALSCSVSHLANFGHGKC* [Pep-2_1780]	L
KYYGNGVTCGKHSCSVNWGHAFSCSVSHLANFGHGHC* [Pep-2_11707]	L
KYYGNGVTCGKHSCSVNWGKAFSCGVSHLANFGHGKC* [Pep-2_1367]	L
KYYGNGVTCGKHSCSVNWGKAFSCSVSMLANFGHGKC* [Pep-2_1384]	L

Substance	activity group by size of inhibition zone compared to wild-type Pln-423
KYYGNGVTCGKHSCSVNWGLAFSCSVSNLANFGHGKC* [Pep-2_6742]	L
KYYGNGVTCGKHSCSVNWGPAFSCSVSRLANFGHGKC* [Pep-2_6528]	L
KYYGNGVTCGKHSCSVNWGQACSCSVSHLANFGHGKC* [Pep-1_30]	L
KYYGNGVTCGKHSCSVNWGQAFACSVSHLANFGFGKC* [GROUP L-UM-23]	L
KYYGNGVTCGKHSCSVNWGQAFACSVSHLANFGHGFC* [Pep-2_3808]	L and E
KYYGNGVTCGKHSCSVNWGQAFACSVSHLANFGHGHC* [Pep-2_11729]	L
KYYGNGVTCGKHSCSVNWGQAFACSVSHLANFGHGKC* [Pep-1_35]	E
KYYGNGVTCGKHSCSVNWGQAFACSVSHLANFGHGWC* [Pep-2_12269]	L
KYYGNGVTCGKHSCSVNWGQAFCCSVSHLANFGHGKC* [GROUP L-UM-17]	L
KYYGNGVTCGKHSCSVNWGQAFCCSVSHLANFGHGSC* [Pep-2_11946]	L
KYYGNGVTCGKHSCSVNWGQAFDCSVSHLANFGHGKC* [GROUP E-UM-1]	E
KYYGNGVTCGKHSCSVNWGQAFDCSVSHLANFGHGKC* [GROUP H-UM-1]	H
KYYGNGVTCGKHSCSVNWGQAFDCSVSHLANFGHGKC* [GROUP L-UM-4]	L
KYYGNGVTCGKHSCSVNWGQAFECRVSHLANFGHGKC* [Pep-2_3415]	L and H
KYYGNGVTCGKHSCSVNWGQAFECSVDHLANFGHGKC* [Pep-2_3428]	E
KYYGNGVTCGKHSCSVNWGQAFECSVSHIANFGHGKC* [Pep-2_3442]	E and H
KYYGNGVTCGKHSCSVNWGQAFECSVSHLANFGHGKC* [Pep-1_32]	L and H
KYYGNGVTCGKHSCSVNWGQAFECSVSHLANFGHNKC* [Pep-2_3477]	L
KYYGNGVTCGKHSCSVNWGQAFECSVSHLANFGMGKC* [Pep-2_10754]	E
KYYGNGVTCGKHSCSVNWGQAFECSVSHLATFGHGKC* [Pep-2_3453]	E
KYYGNGVTCGKHSCSVNWGQAFECSVSRLANFGHGKC* [Pep-2_3433]	E

Substance	activity group by size of inhibition zone compared to wild-type Pln-423
KYYGNGVTCGKHSCSVNWGQAFECSVSWLANFGHGKC* [Pep-2_3438]	L
KYYGNGVTCGKHSCSVNWGQAFKCSVIHLANFGHGKC* [Pep-2_3322]	L
KYYGNGVTCGKHSCSVNWGQAFKCSVSLLANFGHGKC* [Pep-2_3328]	L
KYYGNGVTCGKHSCSVNWGQAFMCSLSHLANFGHGKC* [GROUP L-UM-7]	L
KYYGNGVTCGKHSCSVNWGQAFMCSVEHLANFGHGKC* [Pep-2_6004]	L
KYYGNGVTCGKHSCSVNWGQAFNCSVENLANFGHGKC* [GROUP H-UM-3]	H
KYYGNGVTCGKHSCSVNWGQAFSCAFSHLANFGHGKC* [Pep-2_5044]	L
KYYGNGVTCGKHSCSVNWGQAFSCAVSALANFGHGKC* [Pep-2_5057]	L
KYYGNGVTCGKHSCSVNWGQAFSCAVSHLANFGHGKC* [Pep-1_47]	L
KYYGNGVTCGKHSCSVNWGQAFSCAVSHLANFGHHKC* [Pep-2_5095]	L
KYYGNGVTCGKHSCSVNWGQAFSCAVSHLANFGVGKC* [Pep-2_5092]	L
KYYGNGVTCGKHSCSVNWGQAFSCAVSRLANFGHGKC* [Pep-2_5053]	L
KYYGNGVTCGKHSCSVNWGQAFSCCVSHLANFGHGKC* [GROUP L-UM-1]	L
KYYGNGVTCGKHSCSVNWGQAFSCFVSRLANFGHGKC* [Pep-2_6556]	L
KYYGNGVTCGKHSCSVNWGQAFSCGVSHLANFGHGKC* [GROUP E-UM-7]	E
KYYGNGVTCGKHSCSVNWGQAFSCGVSHLANMGHGKC* [Pep-2_9473]	H
KYYGNGVTCGKHSCSVNWGQAFSCHVDHLANFGHGKC* [Pep-2_4616]	E
KYYGNGVTCGKHSCSVNWGQAFSCHVSHLANFGHGKC* [Pep-1_43]	L
KYYGNGVTCGKHSCSVNWGQAFSCHVSTLANFGHGKC* [Pep-2_4623]	L
